Patent publication US12043599B2, “Herbicidal compounds” (SYNGENTA PARTICIPATIONS AG, priority 2018, dated 2024)

Columns and labels:
Type in all cases: in vivo
Setaria faberi (SETFA) [1] = assay: Post-emergence herbicidal glasshouse test, percentage damage; details: for SETFA POST percentage damage (five point scale): 250 g/h, evaluated after 13 days
How it was run: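 Percentage damage was scored 13 days after treatment on a five-point scale (1=0-19% to 5=80-100%). Treatments were post-emergence sprays on 8-day-old wheat, barley and SETFA plants in a glasshouse (24/16 °C day/night, 14 h light, 65% humidity), using acetone/water 50:50 with 0.5% Tween 20 at the stated rates. Wheat additionally received cloquintocet-mexyl safener at 50 g/ha.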

barley = assay: Post-emergence crop safety test on barley crop plants
Experimental: (§1) Seeds of a variety of test species are sown in standard soil in pots (Lolium perenne (LOLPE), Setaria faberi (SETFA), Alopecurus myosuroides (ALOMY), Echinochloa crus-galli (ECHCG), Avena fatua (AVEFA)). After cultivation for one day (pre-emergence) or after 8 days cultivation (post-emergence) under controlled conditions in a glasshouse (at 24/16° C., day/night; 14 hours light; 65% humidity), the plants are sprayed with an aqueous spray solution derived from the formulation of the technical active ingredient in acetone/water (50:50) solution containing 0.5% Tween 20 (polyoxyethelyene sorbitan monolaurate, CAS RN 9005-64-5). Compounds are applied at […]. The test plants are then grown in a glasshouse under controlled conditions in a glasshouse (at 24/16° C., day/night; 14 hours light; 65% humidity) and watered twice daily. After 13 days for pre and post-emergence, the test is evaluated for the percentage damage caused to the plant. The biological activities are shown in the following table on a five point scale (5=80-100%; 4=60-79%; 3=40-59%; 2=20-39%; 1=0-19%).
Using procedures outlines above, wheat and barley crop plants and a weed species (SETFA) are treated post-emergence with compound A11 of the present invention or comparator compound C1 (Compound A-38 from WO2014/096289) at the application rates indicated. […]

wheat = assay: Post-emergence crop safety test on wheat crop plants
Experimental: as §1
Using procedures outlines above, wheat and barley crop plants and a weed species (SETFA) are treated post-emergence with compound A11 of the present invention or comparator compound C1 (Compound A-38 from WO2014/096289) at the application rates indicated. The compounds were also applied to wheat in conjunction with the safener compound cloquintocet-mexyl (CQC) at 50 g/ha.

[2] = test system: Alopecurus myosuroides (ALOMY); assay: Pre-emergence herbicidal glasshouse test, percentage damage; details: 250 g/h, evaluated after 13 days
How it was run: (§2)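 Seeds are sown in pots, grown at 24/16 °C day/night with 14 h light and 65% humidity, then sprayed at day 1 (pre-emergence) or day 8 (post-emergence). The rate is 250 g/h in acetone/water 50:50 with 0.5% Tween 20. Damage is assessed 13 days later on a 1–5 scale.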

Lolium perenne (LOLPE) [3] = assay: as above; details: 250 g/h, evaluated after 13 days
How it was run: as §2

Setaria faberi (SETFA) [4] = assay: as above; details: 250 g/h, evaluated after 13 days
How it was run: as §2

[5] = test system: Echinochloa crus-galli (ECHCG); assay: as above; details: 250 g/h, evaluated after 13 days
How it was run: as §2

Avena fatua (AVEFA) [6] = assay: as above; details: 250 g/h, evaluated after 13 days
How it was run: as §2

[7] = test system: Alopecurus myosuroides (ALOMY); assay: Post-emergence herbicidal glasshouse test, percentage damage; details: 250 g/h, evaluated after 13 days
How it was run: as §2

Lolium perenne (LOLPE) [8] = assay: as above; details: 250 g/h, evaluated after 13 days
How it was run: as §2

[9] = test system: Echinochloa crus-galli (ECHCG); assay: as above; details: 250 g/h, evaluated after 13 days
How it was run: as §2

Avena fatua (AVEFA) [10] = assay: as above; details: 250 g/h, evaluated after 13 days
How it was run: as §2

Q: Which results are given for `CC#Cc1cc(C)c(C2C(=O)CC3(CCN(C(=O)OC)CC3)CC2=O)c(C)c1` [Compound A11]?
A: overall weed control (Setaria faberi (SETFA) [1]): good overall weed control; SETFA, percentage damage (Setaria faberi (SETFA) [1]; rate 30): 100%; SETFA, percentage damage (Setaria faberi (SETFA) [1]; rate 60): 100%; Barley, percentage damage (barley; rate 30): 10%; Barley, percentage damage (barley; rate 60): 40%; Wheat, percentage damage (wheat; rate 30): 10%; Wheat, percentage damage (wheat; rate 60): 30%; Wheat, percentage damage (wheat; rate 60 + CQC (safener cloquintocet-mexyl at 50 g/ha)): 0%; crop safety vis-à-vis prior art compound C1 (wheat; wheat and barley): significantly improved crop safety

Q: `CC#Cc1cc(C)c(C2=C(OC(=O)OC)CC3(CCN(C(=O)c4ccccn4)CC3)CC2=O)c(C)c1` [Compound P24] was tested. Which “ALOMY PRE percentage damage (five point scale)” value (shortened to “ALOMY PRE percentage damage”) [2] did it give?
A: The value was 5 (5=80-100%).

Q: And the “LOLPE PRE percentage damage (five point scale)” value (shortened to “LOLPE PRE percentage damage”) (Lolium perenne (LOLPE) [3])?
A: The value was 5 (5=80-100%).

Q: And the “SETFA PRE percentage damage (five point scale)” value (shortened to “SETFA PRE percentage damage”) (Setaria faberi (SETFA) [4])?
A: Its value is 5 (5=80-100%).

Q: And the “ECHCG PRE percentage damage (five point scale)” value (shortened to “ECHCG PRE percentage damage”) [5]?
A: The value was 5 (5=80-100%).

Q: And the “AVEFA PRE percentage damage (five point scale)” value (shortened to “AVEFA PRE percentage damage”) (Avena fatua (AVEFA) [6])?
A: Its value is 5 (5=80-100%).

Q: What about the “SETFA POST percentage damage (five point scale)” value (shortened to “SETFA POST percentage damage”) (Setaria faberi (SETFA) [1]) of the same compound?
A: Its value is 5 (5=80-100%).

Q: What about the “ALOMY POST percentage damage (five point scale)” value (“ALOMY POST percentage damage” below) [7] of the same compound?
A: Its value is 5 (5=80-100%).

Q: What about the “LOLPE POST percentage damage (five point scale)” value (from here on “LOLPE POST percentage damage”) (Lolium perenne (LOLPE) [8]) of the same compound?
A: The value was 5 (5=80-100%).

Q: What about the “ECHCG POST percentage damage (five point scale)” value (shortened to “ECHCG POST percentage damage”) [9] of the same compound?
A: Its value is 5 (5=80-100%).

Q: And the “AVEFA POST percentage damage (five point scale)” value (“AVEFA POST percentage damage” below) (Avena fatua (AVEFA) [10])?
A: The value was 5 (5=80-100%).

Q: With `CC#Cc1cc(C)c(C2=C(OC(=O)c3ccccn3)CC3(CCN(C(=O)c4ccccn4)CC3)CC2=O)c(C)c1` [Compound P25] as the compound, how does the “ALOMY PRE percentage damage” value [2] read?
A: Its value is 5 (5=80-100%).

Q: And the “LOLPE PRE percentage damage” value (Lolium perenne (LOLPE) [3])?
A: The value was 5 (5=80-100%).

Q: What about the “SETFA PRE percentage damage” value (Setaria faberi (SETFA) [4]) of the same compound?
A: The value was 5 (5=80-100%).

Q: And the “ECHCG PRE percentage damage” value [5]?
A: Its value is 5 (5=80-100%).

Q: What about the “AVEFA PRE percentage damage” value (Avena fatua (AVEFA) [6]) of the same compound?
A: Its value is 5 (5=80-100%).

Q: And the “SETFA POST percentage damage” value (Setaria faberi (SETFA) [1])?
A: The value was 5 (5=80-100%).

Q: And the “ALOMY POST percentage damage” value [7]?
A: Its value is 5 (5=80-100%).

Q: And the “LOLPE POST percentage damage” value (Lolium perenne (LOLPE) [8])?
A: The value was 5 (5=80-100%).

Q: And the “ECHCG POST percentage damage” value [9]?
A: The value was 5 (5=80-100%).

Q: And the “AVEFA POST percentage damage” value (Avena fatua (AVEFA) [10])?
A: The value was 5 (5=80-100%).

Q: How did the “ALOMY PRE percentage damage” value [2] turn out when `CC#Cc1cc(C)c(C2=C(OC(=O)OC)CC3(CCN(C(=O)C(C)(C)C#N)CC3)CC2=O)c(C)c1` [Compound P27] was run?
A: Its value is 5 (5=80-100%).

Q: What about the “LOLPE PRE percentage damage” value (Lolium perenne (LOLPE) [3]) of the same compound?
A: The value was 5 (5=80-100%).

Q: What about the “SETFA PRE percentage damage” value (Setaria faberi (SETFA) [4]) of the same compound?
A: The value was 5 (5=80-100%).

Q: And the “ECHCG PRE percentage damage” value [5]?
A: The value was 5 (5=80-100%).

Q: What about the “AVEFA PRE percentage damage” value (Avena fatua (AVEFA) [6]) of the same compound?
A: The value was 5 (5=80-100%).

Q: And the “SETFA POST percentage damage” value (Setaria faberi (SETFA) [1])?
A: Its value is 5 (5=80-100%).

Q: And the “ALOMY POST percentage damage” value [7]?
A: The value was 5 (5=80-100%).

Q: And the “LOLPE POST percentage damage” value (Lolium perenne (LOLPE) [8])?
A: Its value is 5 (5=80-100%).

Q: And the “ECHCG POST percentage damage” value [9]?
A: Its value is 5 (5=80-100%).

Q: And the “AVEFA POST percentage damage” value (Avena fatua (AVEFA) [10])?
A: The value was 5 (5=80-100%).

Q: How did the “ALOMY PRE percentage damage” value [2] turn out when `CC#Cc1cc(C)c(C2=C(OC(=O)OC)CC3(CCN(S(C)(=O)=O)CC3)CC2=O)c(C)c1` [Compound P28] was run?
A: Its value is 5 (5=80-100%).

Q: What about the “LOLPE PRE percentage damage” value (Lolium perenne (LOLPE) [3]) of the same compound?
A: The value was 5 (5=80-100%).

Q: What about the “SETFA PRE percentage damage” value (Setaria faberi (SETFA) [4]) of the same compound?
A: Its value is 5 (5=80-100%).

Q: What about the “ECHCG PRE percentage damage” value [5] of the same compound?
A: Its value is 5 (5=80-100%).

Q: What about the “AVEFA PRE percentage damage” value (Avena fatua (AVEFA) [6]) of the same compound?
A: Its value is 5 (5=80-100%).

Q: What about the “SETFA POST percentage damage” value (Setaria faberi (SETFA) [1]) of the same compound?
A: Its value is 5 (5=80-100%).

Q: And the “ALOMY POST percentage damage” value [7]?
A: Its value is 5 (5=80-100%).

Q: What about the “LOLPE POST percentage damage” value (Lolium perenne (LOLPE) [8]) of the same compound?
A: The value was 5 (5=80-100%).

Q: And the “ECHCG POST percentage damage” value [9]?
A: The value was 5 (5=80-100%).

Q: And the “AVEFA POST percentage damage” value (Avena fatua (AVEFA) [10])?
A: The value was 5 (5=80-100%).

Q: What does the source list for `CC#Cc1cc(C)c(C2=C(OC(C)=O)CC3(CCN(C(=O)C4CC4)CC3)CC2=O)c(C)c1` [Compound P29]?
A: ALOMY PRE percentage damage (five point scale) [2]: 5 (5=80-100%); LOLPE PRE percentage damage (five point scale) (Lolium perenne (LOLPE) [3]): 5 (5=80-100%); SETFA PRE percentage damage (five point scale) (Setaria faberi (SETFA) [4]): 5 (5=80-100%); ECHCG PRE percentage damage (five point scale) [5]: 5 (5=80-100%); AVEFA PRE percentage damage (five point scale) (Avena fatua (AVEFA) [6]): 5 (5=80-100%); SETFA POST percentage damage (five point scale) (Setaria faberi (SETFA) [1]): 5 (5=80-100%); ALOMY POST percentage damage (five point scale) [7]: 5 (5=80-100%); LOLPE POST percentage damage (five point scale) (Lolium perenne (LOLPE) [8]): 5 (5=80-100%); ECHCG POST percentage damage (five point scale) [9]: 5 (5=80-100%); AVEFA POST percentage damage (five point scale) (Avena fatua (AVEFA) [10]): 5 (5=80-100%)
